Laboratory results published in BindingDB's records for doi:10.1021/jm050859x (Amgen, 2006).

What follows are compounds tested against RNA-directed RNA polymerase (Hepacivirus hominis, UniProt Q8JXU8) (assay: Inhibitory activity against HCV delta 21 NS5b RNA polymerase).
Chain of RNA-directed RNA polymerase (Q8JXU8 whole entry): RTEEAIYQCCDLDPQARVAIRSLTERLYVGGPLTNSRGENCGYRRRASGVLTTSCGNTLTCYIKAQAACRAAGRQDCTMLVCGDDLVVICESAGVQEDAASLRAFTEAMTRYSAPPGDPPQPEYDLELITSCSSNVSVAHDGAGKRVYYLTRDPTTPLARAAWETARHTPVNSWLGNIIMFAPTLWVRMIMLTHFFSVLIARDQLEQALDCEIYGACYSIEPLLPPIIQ

Q: With `O=C(NN1C(=O)C(=Cc2ccc(Cl)cc2)SC1=S)c1ccccc1` [5-(4-chlorobenzylidene)-3-(benzoylamino)-4-oxo-2-thionothiazolidine] as the compound, how does the IC50 read?
A: > 30 µM

Q: With `O=C1C(=Cc2ccc(-c3cc(C(F)(F)F)ccc3Cl)o2)SC(=S)N1NS(=O)(=O)c1ccccc1` [5-(5-[2-chloro-5-(trifluoromethyl)phenyl]-furan-2-methylene)-3-(benzenesulfonylamino)-4-oxo-2-thionothiazolidine] as the compound, how does the IC50 read?
A: 0.1 µM

Q: How did the IC50 turn out when `O=S(=O)(Nn1c(O)c(Cc2ccc(Cl)c(Cl)c2)sc1=S)c1ccccc1` [5-(3,4-dichlorobenzyl)-3-(benzenesulfonylamino)-4-oxo-2-thionothiazolidine] was run?
A: 11 µM

Q: For `O=C1N=C(S)SC1=Cc1ccc(Cl)cc1` [5-(4-chlorobenzylidene)-2-thioxothiazolidin-4-one], which IC50 is on record?
A: > 30 µM

Q: For `C=C(c1ccc(Cl)c(Cl)c1)c1sc(=S)n(NS(=O)(=O)c2ccccc2)c1O` [5-(3,4-dichlorophenyl-1-ethylene)-3-(benzenesulfonylamino)-4-oxo-2-thionothiazolidine], which IC50 is on record?
A: 0.6 µM
